# “Also recorded” adds a separate entry of the source.
# Test: Pulmonary responses and safety in human subjects with mild, intermittent asthma (single-blind and double-blind parts)
# Assay type: in vivo
# Protocol: Methodology: The study consisted of 2 parts, a Single-Blind Part and a Double-Blind Part. The dose escalating, Single-Blind Part enrolled subjects with mild, intermittent asthma and consisted of 3 sequentially enrolled dosing cohorts with 8 subjects per cohort, such that Dosing Cohorts 1, 2 and 3 received binodenoson target doses of 0.5 μg/kg, 1.0 μg/kg and 1.5 μg/kg, respectively. All 8 subjects in a dosing cohort must have completed dosing at the assigned dose and a medical review of each cohort must have been acceptable before enrollment in the next cohort began. The Double-Blind Part was initiated only if the medical review of all safety data from the Single-Blind Part was acceptable. In the Double Blind Part, subjects with mild, intermittent asthma were randomly assigned in a 2:1 ratio to receive either binodenoson 1.5 μg/kg (n=40 planned) or placebo control (n=20 planned).
# Both study parts were comprised of Screening, Treatment and Follow-Up Visits. The Screening Visit occurred 7 to 14 days before the Treatment Visit and consisted of a physical examination, medical history and application of inclusion and exclusion criteria. Subjects were instructed to measure peak expiratory flow (PEF) and asthma symptoms during a period of at least 7 days prior to the Treatment Visit. Subjects were to continue to meet all Screening eligibility criteria at the Treatment Visit and forced expiratory volume in 1 second (FEV1) was to remain within 80% of predicted for subjects to be eligible for dosing. All subjects enrolled in the Single-Blind Part and subjects randomized to receive binodenoson in the Double-Blind Part received 3 intravenous (IV) injections during the Treatment Visit: (1) placebo; (2) a low, challenge binodenoson dose to detect potential hypersensitivity reactions; and (3) an assigned binodenoson test dose. Subjects randomized to receive placebo in the Double Blind Part received 3 placebo injections. The Follow-Up Visit occurred 2 to 4 days following the Treatment Visit.
# Eligible subjects were males or non-pregnant, nonlactating females ≧18 years of age weighing <350 pounds with a medical history of mild, intermittent asthma (as defined in the “Guidelines for the Diagnosis and Management of Asthma” prepared by the National Institutes of Health [NIH]) within 6 months of Screening.
# Subjects were not eligible for the study if they had resting sitting systolic blood pressure (SBP)<100 or >140 mmHg, diastolic blood pressure (DBP)<60 or >90 mmHg, pulse rate >95 beats per minute (bpm), or a lower limit FEV1 at rest of <80% of the predicted value at Screening.
# Dose and Mode of Administration: A stock solution of binodenoson (25 μg/mL) was administered as a bolus injection over 30 seconds (0.1 μg/kg=0.004 mL/kg of stock solution, 0.5 μg/kg=0.02 mL/kg of stock solution, 1.0 μg/kg=0.04 mL/kg of stock solution and 1.5 μg/kg=0.06 mL/kg of stock solution).
# Duration of Treatment: Each subject received three 30-second bolus IV injections separated by ≧90 minutes in both the Single Blind and Double-Blind Parts of the study.
# Criteria for Evaluation: The primary safety endpoint was clinically significant bronchoconstriction, defined as a ≧20% decrease in FEV1 from the predrug baseline following binodenoson administration. Other safety assessments included need for rescue medication, regular measurements of pulmonary function (FEV1 [% predicted], forced vital capacity [FVC] and forced expiratory flow during the middle half of the FVC [FEF25%-75%]), vital signs, pulse oximetry, physical examination findings, electrocardiogram (ECG) results, clinical laboratory results and adverse events.
# Statistical Methods: All data collected in the study were summarized by treatment (placebo; 0.1 μg/kg binodenoson challenge; or 0.5, 1.0, or 1.5 μg/kg binodenoson) and study Part (Single-Blind or Double-Blind with univariate summaries). Continuous variables were summarized with descriptive statistics (n, mean, median, standard deviation [SD] and minimum and maximum). […]
# [1] = double-blind, Binodenoson Group, second injection 0.1 μg/kg iv bolus, 15 minutes
# [2] = double-blind, Binodenoson Group, second injection 0.1 μg/kg iv bolus, 90 minutes
# [3] = double-blind, binodenoson 1.5 μg/kg group
# [4] = double-blind, third injection 1.5 μg/kg
# [5] = double-blind, third injection 1.5 μg/kg iv bolus, 5 min
# [6] = double-blind, third injection 1.5 μg/kg iv bolus, 15 min
# [7] = double-blind, third injection 1.5 μg/kg iv bolus, 45 min
# [8] = double-blind, third injection 1.5 μg/kg iv bolus, 90 min
# [9] = single-blind, Cohort 1, second injection 0.1 μg/kg iv bolus, 15 minutes
# [10] = single-blind, Cohort 1, second injection 0.1 μg/kg iv bolus, 90 minutes
# [11] = single-blind, Cohort 2, second injection 0.1 μg/kg iv bolus, 15 minutes
# [12] = single-blind, Cohort 2, second injection 0.1 μg/kg iv bolus, 90 minutes
# [13] = single-blind, Cohort 3, second injection 0.1 μg/kg iv bolus, 15 minutes
# [14] = single-blind, Cohort 3, second injection 0.1 μg/kg iv bolus, 90 minutes
smiles,measurement,setting,value
"Nc1nc(N/N=C/C2CCCCC2)nc2c1ncn2[C@@H]1O[C@H](CO)[C@@H](O)[C@H]1O (stereo in doubt) [Binodenoson, 2-{2-[(Cyclohexyl)methylene]hydrazino}adenosine]","changes from baseline in mean FEV1, FEV1 (% predicted), FEF25%-75%, FVC","after any injection, single- or double-blind part",No clinically significant changes from baseline
same,safety and tolerability,doses up to 1.5 μg/kg,safe and well tolerated
same,FEF25%-75% Mean % Change from Baseline (SD),[1],1.531 (5.261) %
same,FEF25%-75% Mean (SD),[1],2.946 (0.973)
same,FEV1 (% predicted) Mean % Change from Baseline (SD),[1],0.3 (2.4) %
same,FEV1 (% predicted) Mean (SD),[1],88.3 (6.9) % predicted
same,FEV1 (L) Mean % Change from Baseline (SD),[1],0.421 (2.525) %
same,FEV1 (L) Mean (SD),[1],3.170 (0.590) L
same,FVC Mean % Change from Baseline (SD),[1],0.055 (2.683) %
same,FVC Mean (SD),[1],4.051 (0.824)
same,FEF25%-75% Mean % Change from Baseline (SD),[2],1.181 (6.739) %
same,FEF25%-75% Mean (SD),[2],2.965 (1.071)
same,FEV1 (% predicted) Mean % Change from Baseline (SD),[2],−0.1 (2.9) %
same,FEV1 (% predicted) Mean (SD),[2],87.9 (7.7) % predicted
same,FEV1 (L) Mean % Change from Baseline (SD),[2],−0.042 (3.348) %
same,FEV1 (L) Mean (SD),[2],3.152 (0.574) L
same,FVC Mean % Change from Baseline (SD),[2],−0.457 (3.163) %
same,FVC Mean (SD),[2],4.021 (0.778)
same,"abdominal discomfort, treatment emergent AE",[3],5%
same,"dizziness, treatment emergent AE",[3],18%
same,"flushing, treatment emergent AE",[3],15%
same,"headache, treatment emergent AE",[3],5%
same,"nausea, treatment emergent AE",[3],8%
same,"sinus tachycardia, treatment emergent AE",[3],8%
same,"tachycardia, treatment emergent AE",[3],31%
same,"changes from baseline in mean FEV1, FEV1 (% predicted), FEF25%-75%, FVC","double-blind, binodenoson 1.5 μg/kg group, after first or second injections",no clinically significant changes from baseline
same,subjects who experienced AEs,"double-blind, binodenoson 1.5 μg/kg subjects (placebo 19%)",69%
same,"changes from baseline in mean FEV1, FEV1 (% predicted), FEF25%-75%, FVC",[4],No clinically significant changes from baseline
same,treatment differences in pulmonary function versus placebo,[4],no statistically significant treatment differences
same,FEF25%-75% Mean % Change from Baseline (SD),[5],−0.877 (6.999) %
same,FEF25%-75% Mean (SD),[5],2.913 (0.981)
same,FEV1 (% predicted) Mean % Change from Baseline (SD),[5],0.1 (3.3) %
same,FEV1 (% predicted) Mean (SD),[5],88.0 (8.7) % predicted
same,FEV1 Mean % Change from Baseline (SD),[5],0.028 (3.849) %
same,FEV1 Mean (SD),[5],3.153 (0.589)
same,FVC Mean % Change from Baseline (SD),[5],0.186 (4.299) %
same,FVC Mean (SD),[5],4.022 (0.746)
same,FEF25%-75% Mean % Change from Baseline (SD),[6],−0.477 (6.555) %
same,FEF25%-75% Mean (SD),[6],2.930 (1.012)
same,FEV1 (% predicted) Mean % Change from Baseline (SD),[6],−0.3 (2.6) %
same,FEV1 (% predicted) Mean (SD),[6],87.6 (8.5) % predicted
same,FEV1 Mean % Change from Baseline (SD),[6],−0.405 (3.079) %
same,FEV1 Mean (SD),[6],3.137 (0.574)
same,FVC Mean % Change from Baseline (SD),[6],−0.309 (3.272) %
same,FVC Mean (SD),[6],4.004 (0.755)
same,FEF25%-75% Mean % Change from Baseline (SD),[7],0.388 (7.548) %
same,FEF25%-75% Mean (SD),[7],2.940 (0.959)
same,FEV1 (% predicted) Mean % Change from Baseline (SD),[7],0.1 (3.3) %
same,FEV1 (% predicted) Mean (SD),[7],88.0 (8.3) % predicted
same,FEV1 Mean % Change from Baseline (SD),[7],0.056 (3.888) %
same,FEV1 Mean (SD),[7],3.156 (0.598)
same,FVC Mean % Change from Baseline (SD),[7],−0.133 (4.369) %
same,FVC Mean (SD),[7],4.015 (0.780)
same,FEF25%-75% Mean % Change from Baseline (SD),[8],−0.335 (8.198) %
same,FEF25%-75% Mean (SD),[8],2.923 (0.963)
same,FEV1 (% predicted) Mean % Change from Baseline (SD),[8],1.1 (3.2) %
same,FEV1 (% predicted) Mean (SD),[8],89.0 (7.7) % predicted
same,FEV1 Mean % Change from Baseline (SD),[8],1.228 (3.835) %
same,FEV1 Mean (SD),[8],3.191 (0.588)
same,FVC Mean % Change from Baseline (SD),[8],1.755 (3.720) %
same,FVC Mean (SD),[8],4.093 (0.800)
same,"changes in SBP, pulse rate and DBP","double-blind, magnitude greater in binodenoson than placebo group",Transient increases in SBP and pulse rate and decreases in DBP
same,need for rescue medication,single- and double-blind parts,No subject required rescue medication
same,clinically significant bronchoconstriction (≧20% decrease in FEV1 from predrug baseline),"single- and double-blind parts, doses up to 1.5 μg/kg",No bronchoconstriction events; also recorded: did not induce bronchoconstriction
same,FEF25%-75% Mean % Change from Baseline (SD),[9],0.526 (7.433) %
same,FEF25%-75% Mean (SD),[9],2.994 (0.911)
same,FEV1 (% predicted) Mean % Change from Baseline (SD),[9],0.1 (3.6) %
same,FEV1 (% predicted) Mean (SD),[9],90.5 (12.1) % predicted
same,FEV1 (L) Mean % Change from Baseline (SD),[9],0.136 (3.922) %
same,FEV1 (L) Mean (SD),[9],3.908 (0.824) L
same,FVC Mean % Change from Baseline (SD),[9],−0.003 (2.480) %
same,FVC Mean (SD),[9],5.516 (1.130)
same,FEF25%-75% Mean % Change from Baseline (SD),[10],9.136 (9.019) %
same,FEF25%-75% Mean (SD),[10],3.241 (0.946)
same,FEV1 (% predicted) Mean % Change from Baseline (SD),[10],4.5 (3.5) %
same,FEV1 (% predicted) Mean (SD),[10],94.9 (12.3) % predicted
same,FEV1 (L) Mean % Change from Baseline (SD),[10],5.043 (4.097) %
same,FEV1 (L) Mean (SD),[10],4.101 (0.867) L
same,FVC Mean % Change from Baseline (SD),[10],2.379 (3.221) %
same,FVC Mean (SD),[10],5.654 (1.188)
same,FEF25%-75% Mean % Change from Baseline (SD),[11],0.724 (4.318) %
same,FEF25%-75% Mean (SD),[11],3.665 (1.555)
same,FEV1 (% predicted) Mean % Change from Baseline (SD),[11],1.4 (2.5) %
same,FEV1 (% predicted) Mean (SD),[11],94.8 (13.2) % predicted
same,FEV1 (L) Mean % Change from Baseline (SD),[11],1.292 (2.662) %
same,FEV1 (L) Mean (SD),[11],3.944 (0.895) L
same,FVC Mean % Change from Baseline (SD),[11],2.129 (3.295) %
same,FVC Mean (SD),[11],5.120 (1.195)
same,FEF25%-75% Mean % Change from Baseline (SD),[12],−2.574 (12.173) %
same,FEF25%-75% Mean (SD),[12],3.471 (1.285)
same,FEV1 (% predicted) Mean % Change from Baseline (SD),[12],0.3 (4.2) %
same,FEV1 (% predicted) Mean (SD),[12],93.6 (13.0) % predicted
same,FEV1 (L) Mean % Change from Baseline (SD),[12],0.165 (4.367) %
same,FEV1 (L) Mean (SD),[12],3.895 (0.854) L
same,FVC Mean % Change from Baseline (SD),[12],1.624 (3.599) %
same,FVC Mean (SD),[12],5.100 (1.219)
same,FEF25%-75% Mean % Change from Baseline (SD),[13],0.635 (6.670) %
same,FEF25%-75% Mean (SD),[13],2.758 (0.695)
same,FEV1 (% predicted) Mean % Change from Baseline (SD),[13],0.1 (2.7) %
same,FEV1 (% predicted) Mean (SD),[13],90.5 (8.5) % predicted
same,FEV1 (L) Mean % Change from Baseline (SD),[13],0.145 (2.786) %
same,FEV1 (L) Mean (SD),[13],3.325 (0.690) L
same,FVC Mean % Change from Baseline (SD),[13],0.480 (2.084) %
same,FVC Mean (SD),[13],4.364 (0.876)
same,FEF25%-75% Mean % Change from Baseline (SD),[14],4.324 (8.478) %
same,FEF25%-75% Mean (SD),[14],2.836 (0.636)
same,FEV1 (% predicted) Mean % Change from Baseline (SD),[14],0.9 (2.0) %
same,FEV1 (% predicted) Mean (SD),[14],91.3 (7.3) % predicted
